Measurements taken from patent US20230173077A1 (AJK BIOPHARMACEUTICAL, LLC, priority 2020, published 2023).
Where two headings read alike, the source gives them in different places.

Test system: HCoV-229E
Experiment: Antiviral activity and toxicity against HCoV-229E
Assay type: cell-based

Compound: CCCCCCCCCCCCCC(=O)OCC1OC(n2cc(F)c(N)nc2=O)CS1 (centres unmarked) [5′-O-tetradecanoyl ester conjugate of 2′,3′-dideoxy-5-fluoro-3′-thiacytidine]
- EC50: 82 µM

Compound: CCC(CC)COC(=O)[C@H](C)N[P@](=O)(OC[C@H]1O[C@@](C#N)(c2ccc3c(N)ncnn23)[C@H](O)[C@@H]1O)Oc1ccccc1 [RDV, Remdesivir]
- EC50 (Human coronavirus 229E): 0.07 µM
